# Measurements from US6903132B2, “Non-peptide GnRH agents, pharmaceutical compositions and methods for their use” (Agouron Pharmaceuticals, Inc., priority 2002, dated 2005).
# pKi: −log10 of the molar value.
# What was measured:
# Assay in all cases: Radioligand binding assay: inhibition of binding of 125I-GnRH-A to GnRH receptors (membranes)
# human GnRH receptors = target: T1, human GnRH receptors (Homo sapiens, UniProt P30968); settings: Human GnRH receptor; competition with 125I-GnRH-A; Ki calculated from IC50 (Cheng et al.)
# T1 construct: expressed in transfected cells; host or cells: HEK 293
# T1 sequence (P30968 1-328): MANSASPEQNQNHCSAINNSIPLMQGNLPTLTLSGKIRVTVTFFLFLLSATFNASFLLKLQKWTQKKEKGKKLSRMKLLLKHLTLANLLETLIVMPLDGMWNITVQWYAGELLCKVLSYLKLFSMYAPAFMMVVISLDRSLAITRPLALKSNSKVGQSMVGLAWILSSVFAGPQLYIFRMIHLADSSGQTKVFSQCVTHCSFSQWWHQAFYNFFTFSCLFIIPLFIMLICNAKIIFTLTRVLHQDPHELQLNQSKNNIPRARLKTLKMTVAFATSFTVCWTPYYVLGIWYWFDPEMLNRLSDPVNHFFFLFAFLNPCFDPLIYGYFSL
# Procedure: (§1) HEK 293 cells stably transfected with mouse or human GnRH receptors as described above are grown in Dulbecco's high-glucose, modified Eagle's medium (DMEM) supplemented with 0.2% G418, 10% fetal bovine serum (FBS) and 100U/mL penicillin/streptomycin. GH3 cells stably transfected with the rat GnRH receptor (GGH3) were provided by Dr. William Chin (Harvard Medical School, Boston, Mass.). These cells are extensively characterized previously (Kaiser et al., 1997). The cells are grown in low glucose DMEM containing: 100U/mL penicillin/streptomycin, 0.6% G418 and 10% heat-inactivated FBS.
# (§2) HEK 293 cells containing mouse or human receptors, or rat pituitaries (Pel Freez Biologicals, Rogers, Ark.) are homogenized in buffer A containing: 50 mM Tris (pH 7.4), 0.32 M sucrose, 2 mM EGTA, 1 mM PMSF, 5 μg/ml aprotinen, 5 μg/ml Pepstatin A, and 1 μg/ml leupeptin. Homogenized cells are centrifuged at 4° C. at 20,000×g for 25 minutes, re-suspended in buffer A and re-centrifuged at 4° C. at 20,000×g for an additional 25 minutes. Total membrane protein was determined with a BCA kit (Pierce, Rockford, Ill.). Membranes are stored at −70° C. at a final membrane protein concentration of approximately 5 mg/ml.
# (§3) The radioiodinated agonist analog of GnRH, [des-Gly^10, D-Ala^6]GnRH ethylamide (^125I-GnRH-A), is used as the radioligand. One μg of GnRH-A diluted in 0.5 M phosphate buffer (pH 7.4) is added to an lodogen®-coated borosilicate glass tube (Pierce, Rockford, Ill.) containing 35 μl of 0.05 M phosphate buffer (pH 7.4-7.6) and 1 mCi of Na[^125I]. The reaction mixture is vortexed and incubated for 1 minute at room temperature. After one minute, the mixture is vortexed and allowed to incubate for an additional minute. 2 ml of 0.5 M acetic acid/1% BSA is added to the reaction tube and the mixture is added to a C18 Sep-Pak cartridge. The cartridge is washed with subsequent washes of 5 ml H2O and 5 ml 0.5 M acetic acid and then eluted with 5×1 ml of 60%CH3CN/40% 0.5 M acetic acid. The eluate is diluted with 3× volume of HPLC buffer A (0.1% TFA in H2O) and loaded onto a C18 column. The iodinated product is eluted over 20-25 min with a gradient of 25-100% CH3CN containing 0.1% TFA. The radioactive fractions (750 μl/fraction) are collected into clean polypropylene tubes containing 100 μl of 10% BSA. Fractions are assessed for biological activity by radiolig and binding. Specific activity of the radioligand was approximately 2200 Ci/mmol.
# (§4) Membranes are diluted to 0.01-0.5 mg/ml (depending upon the species of receptor) with assay buffer containing 50 mM HEPES (pH 7.4), 1 mM EDTA, 2.5 mM MgCl2, and 0.1% BSA. Membranes (diluted to utilize similar receptor numbers between assays) are incubated with approximately 0.04-0.06 nM ^125I-GnRH-A in the presence or absence of competing agents (0.1-10,000 nM) in a total volume of 200 μl in 96-well polypropylene plates for 1 hour at room temperature. Assays are stopped by rapid filtration onto 96-well GF/C filters soaked in 0.1% polyethylenimine (PEI) utilizing a Packard 96-well cell harvester. Filters are washed three times with ice-cold PBS (50 mM NaPO4, 0.9% NaCl, 2 mM MgCl2, and 0.02% NaN3, pH 7.4). 35 μl of scintillation cocktail is added to each filter well and filters are counted on a Packard Topcount. Control dose-response curves are generated to GnRH (0.1 nM-100 nM) in each competition binding experiment. Ki values were calculated from IC50 values according to Cheng et al., Biochemical Pharmacol. 22: 3099-3108, 1973. [formula]
# mouse GnRH receptors = target: T2, mouse GnRH receptors (Mus musculus, UniProt Q01776); settings: Mouse GnRH receptor; competition with 125I-GnRH-A; Ki calculated from IC50 (Cheng et al.)
# T2 construct: expressed in transfected cells; host or cells: HEK 293
# T2 sequence (Q01776 1-327): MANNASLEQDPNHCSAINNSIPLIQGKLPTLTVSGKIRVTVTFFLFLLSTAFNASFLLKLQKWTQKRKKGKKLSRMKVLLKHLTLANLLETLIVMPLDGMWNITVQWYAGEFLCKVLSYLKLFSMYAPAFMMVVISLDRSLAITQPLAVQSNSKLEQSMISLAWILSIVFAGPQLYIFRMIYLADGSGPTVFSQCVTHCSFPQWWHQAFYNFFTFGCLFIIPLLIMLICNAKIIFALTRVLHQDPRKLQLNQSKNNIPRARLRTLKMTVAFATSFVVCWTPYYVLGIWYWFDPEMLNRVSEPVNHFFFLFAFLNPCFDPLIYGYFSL
# Procedure: as §1, §2, §3, §4
# rat GnRH receptor = target: T3, rat GnRH receptor (Rattus norvegicus, UniProt P30969); settings: competition with 125I-GnRH-A, Ki calculated from IC50 (Cheng et al.)
# T3 construct: rat pituitaries (Pel Freez Biologicals, Rogers, Ark.) are homogenized in buffer A; tissue Pel Freez Biologicals; host or cells: rat pituitaries
# T3 sequence (P30969 1-327): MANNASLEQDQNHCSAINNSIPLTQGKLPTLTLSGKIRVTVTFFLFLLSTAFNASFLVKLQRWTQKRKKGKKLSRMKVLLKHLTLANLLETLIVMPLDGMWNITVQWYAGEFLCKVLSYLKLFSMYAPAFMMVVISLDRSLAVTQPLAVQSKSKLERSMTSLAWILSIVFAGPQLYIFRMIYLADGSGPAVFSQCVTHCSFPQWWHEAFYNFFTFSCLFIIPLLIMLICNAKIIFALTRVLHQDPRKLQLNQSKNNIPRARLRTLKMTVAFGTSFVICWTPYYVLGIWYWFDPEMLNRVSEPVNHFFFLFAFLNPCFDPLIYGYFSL
# Procedure: as §1, §2, §3, §4
Compound,pKi (human GnRH receptors),pKi (mouse GnRH receptors),pKi (rat GnRH receptor)
"Cc1ccc(C(C)(C)C)cc1Cc1ccc(C(=O)NNc2ccc3ccccc3n2)o1 [Example B3, 5-[5-(tert-butyl)-2-methylbenzyl]-N′-(2-quinolinyl)-2-furohydrazide]",7.02,7.08,7.19
"Cc1cc(NNC(=O)c2ccc(Cc3cc4c(cc3Cl)C(C)(C)CCC4(C)C)o2)nc2c1c(C)nn2C [Example C4, 5-[(3-chloro-5,5,8,8-tetramethyl-5,6,7,8-tetrahydro-2-naphthalenyl)methyl]-N′-(1,3,4-trimethyl-1H-pyrazolo[3,4-b]pyridin-6-yl)-2-furohydrazide]",8.89,8.09,7.66
"Cc1cc2c(cc1Cc1ccc(C(=O)NNc3ncccc3C(F)(F)F)o1)C(C)(C)CCC2(C)C [Example C11, 5-[(3,5,5,8,8-Pentamethyl-5,6,7,8-tetrahydro-2-naphthalenyl)methyl]-N′-[3-(trifluoromethyl)-2-pyridinyl]-2-furohydrazide]",7.20,7.17,7.08
"Cc1cc2c(cc1Cc1ccc(C(=O)NNc3ncc(C(F)(F)F)cc3Cl)o1)C(C)(C)CCC2(C)C [Example C12, N′-[3-Chloro-5-(trifluoromethyl)-2-pyridinyl]-5-[(3,5,5,8,8-pentamethyl-5,6,7,8-tetrahydro-2-naphthalenyl)methyl]-2-furohydrazide]",7.34,7.48,7.41
"Cc1cc(C(F)(F)F)cc(NNC(=O)c2ccc(Cc3cc4c(cc3C)C(C)(C)CCC4(C)C)o2)n1 [Example C13, N′-[6-methyl-4-(trifluoromethyl)-2-pyridinyl]-5-[(3,5,5,8,8-pentamethyl-5,6,7,8-tetrahydro-2-naphthalenyl)methyl]-2-furohydrazide]",6.66,6.89,6.62
"Cc1cc2c(cc1Oc1oc(C(=O)NNc3cc(C)c4c(C)nn(C)c4n3)cc1Br)C(C)(C)CCC2(C)C [Example F3, 4-Bromo-5-[(3,5,5,8,8-pentamethyl-5,6,7,8-tetrahydro-2-naphthalenyl)oxy]-N′-[1,3,4-trimethyl-1H-pyrazolo[3,4-b]pyridin-6-yl)-2-furohydrazide]",7.10,6.87,6.27
"Cc1cc(NNC(=O)c2ccc(Oc3ccc4c(c3)C(C)(C)CCC4(C)C)o2)nc2c1c(C)nn2C [Example F4, 5-[(5,5,8,8-tetramethyl-5,6,7,8-tetrahydro-2-naphthalenyl)oxy]-N′-(1,3,4-trimethyl-1H-pyrazolo[3,4-b]pyridin-6-yl)-2-furohydrazide]",6.90,6.35,6.42

# Continued, values first:
pKi (human GnRH receptors),pKi (mouse GnRH receptors),pKi (rat GnRH receptor),Compound
8.62,8.44,8.38,"Cc1cc2c(cc1Oc1ccc(C(=O)NNc3cc(C)c4c(C)nn(C)c4n3)o1)C(C(C)C)C(C)C2(C)C (stereo not drawn) [Example I2, 5-(3-lsopropyl-1,1,2,6-tetramethyl-indan-5-yloxy)-furan-2-carboxylic acid N′-(1,3,4-trimethyl-1H-pyrazolo[3,4-b]pyridin-6-yl)-hydrazide]"
7.30,7.21,7.10,"Cc1cc(NNC(=O)c2ccc(Oc3cc(C(C)(C)C)ccc3Br)o2)nc2c1c(C)nn2C [Example I6, 5-(2-Bromo-5-tert-butyl-phenoxy)-furan-2-carboxylic acid N′-(1,3,4-trimethyl-1H-pyrazolo[3,4-b]pyridin-6-yl)-hydrazide]"
8.55,7.96,7.77,"Cc1cc2c(cc1Oc1ccc(C(=O)NNc3cc(C)c4c(C)nn(C)c4n3)o1)C(C)(C)CC2 [Example I7, 5-(3,3,6-Trimethyl-indan-5-yloxy)-furan-2-carboxylic acid N′-(1,3,4-trimethyl-1H-pyrazolo[3,4-b]pyridin-6-yl)-hydrazide]"
8.20,7.80,7.54,"Cc1cc2c(c(Br)c1Oc1ccc(C(=O)NNc3cc(C)c4c(C)nn(C)c4n3)o1)C(C)(C)CCC2(C)C [Example I8, 5-(1-Bromo-3,5,5,8,8-pentamethyl-5,6,7,8-tetrahydro-naphthalen-2-yloxy)-furan-2-carboxylic acid N′-(1,3,4-trimethyl-1H-pyrazolo[3,4-b]pyridin-6-yl)-hydrazide]"
8.92,8.68,8.42,"Cc1cc2c(c(C)c1Oc1ccc(C(=O)NNc3cc(C)c4c(C)nn(C)c4n3)o1)C(C)(C)CCC2(C)C [Example I9, 5-(1,3,5,5,8,8-Hexamethyl-5,6,7,8-tetrahydro-naphthalen-2-yloxy)-furan-2-carboxylic acid N′-(1,3,4-trimethyl-1H-pyrazolo[3,4-b]pyridin-6-yl)-hydrazide]"
6.84,6.80,6.64,"COc1c(Oc2ccc(C(=O)NNc3cc(C)c4c(C)nn(C)c4n3)o2)c(C)cc2c1C(C)(C)CCC2 [Example I10, 5-(1-Methoxy-3,8,8-trimethyl-5,6,7,8-tetrahydro-naphthalen-2-yloxy)-furan-2-carboxylic acid N′-(1,3,4-trimethyl-1H-pyrazolo[3,4-b]pyridin-6-yl)-hydrazide]"
6.77,6.60,6.10,"Cc1cc2c(c(Br)c1Oc1ccc(C(=O)NNc3cc(C)c4c(C)nn(C)c4n3)o1)C(C)(C)CCC2 [Example I11, 5-(1-Bromo-3,8,8-trimethyl-5,6,7,8-tetrahydro-naphthalen-2-yloxy)-furan-2-carboxylic acid N′-(1,3,4-trimethyl-1H-pyrazolo[3,4-b]pyridin-6-yl)-hydrazide]"
